Measured values as given in patent US20130337579A1, “Methods for Determining Protein Ligand Binding” (UNIVERSITY OF MARYLAND, COLLEGE PARK, priority 2010, published 2013).

Columns and labels:
Alg44PilZ = molecular target: T1, Alg44PilZ (Pseudomonas aeruginosa, UniProt Q9HY69); details: estimated by filter binding, previous studies; cited from earlier work
T1 construct: Previous studies of the dissociation rate of cdiGMP from Alg44PilZ

[1] = molecular target: Maltose binding protein (MBP) (Escherichia coli, UniProt P0AEX9); details: whole-cell lysate, 8 nM 32P-cdiGMP
Description: (§1) Radiolabeled ligands were incubated with each of the proteins and the mixtures were spotted on nitrocellulose. After spreading by capillary action, membranes were dried and quantitated by phosphorimager. […] The specificity of Alg44PilZ binding to cdiGMP was further tested by competition with excess unlabeled nucleotides (400-fold molar excess relative to the Alg44PilZ protein).

E. coli NtrB = E. coli NtrB (Escherichia coli, UniProt P0AFB5); experiment: DRaCALA binding of radiolabeled nucleotides to purified NtrB; details: 20 μM purified protein; 500 nM 14C-cAMP, 4 nM 32P-ATP or 4 nM 32P-cdiGMP
Description: as §1
Protein or whole cell lysates in 1× cdiGMP binding buffer (20 μl) was mixed with 4 nM of radiolabeled nucleotide and allowed to incubate for 10 minutes at room temperature. Radiolabeled nucleotide was competed away by cold nucleotides in concentrations and for times indicated. Purified proteins were tested in technical replicates. Whole cell lysates in FIG. 4 and FIG. 12 were tested in biological triplicates. Whole cell lysates in FIG. 5 were tested in technical replicates. These mixtures were pipetted (2.5-5 μl) onto dry, untreated nitrocellulose (GE Healthcare) in triplicate and allowed to dry completely before quantification. An FLA7100 Fujifilm Life Science Phosphorimager was used to detect luminescence following a 5-minute exposure of blotted nitrocellulose to phosphorimager film. Data was quantified using Fujifilm Multi Gauge software v3.0.

Vc2* riboswitch RNA = experiment: Electrophoretic mobility shift assay (EMSA) of cdiGMP binding to Vc2* RNA; details: read-out: Kd (apparent affinity)
From the text: We have shown that protein interaction with DNA can be detected by DRaCALA. We wondered if the principle of DRaCALA would also apply to ribonucleic acids. In particular, can the DRaCALA technology be used to detect the interaction of riboswitches with their small molecule ligands. One example of such an interaction that has been of recent interest is the cdiGMP responsive Vc2 riboswitch identified in bacteria. To study such an interaction with DRaCALA, one of the binding partners must be immobilized. […] The biotinylated riboswitch was sequestered by streptavidin, allowing the nucleic acid to take the place of protein as the immobile partner in the binding assay. Vc2* was tested directly for sequestration of cdiGMP and also biotinylated and tested for binding to cdiGMP in the presence or absence of streptavidin. The 4 nM radiolabelled cdiGMP was mobile alone and in the presence of the Vc2* or biotinylated Vc2* RNA (FIG. 19A, lanes 1-3). […] Biotinylated Vc2* RNA and bound cdiGMP was immobilized by streptavidin as expected (lane 6). […]
Gel shift assays were performed using 8% acrylamide gels with 100 mM Tris/HEPES, pH=7.5, 10 mM MgCl2, and 0.1 mM EDTA in the gel and running buffer. […] Gels were imaged with a phosphorimager and fraction bound quantified with Fuji Image Guage software. […]

PelD = experiment: DRaCALA of whole cell lysates of E. coli BL21(DE3) expressing PelD; format: binding, P. aeruginosa; details: PelD with or without MBP tag
Description: FIG. 10. Binding of cdiGMP to whole cell lysates expressing soluble or insoluble cdiGMP binding proteins. (A) BL21(DE3) cells expressing the indicated proteins were analyzed by PAGE and coomassie staining of whole cell (W) and soluble (S) fractions. Arrows indicate the overexpressed protein of the correct molecular weight in whole cell lysates. Molecular weights of proteins are indicated on the left in kilodaltons. (B) Spots of BL21 cells overexpressing the indicated proteins were assayed for cdiGMP binding by DRaCALA. (C) Quantification of the data shown in (B). (D) Binding of ^32P-cdiGMP to various dilutions of lysates of BL21(DE3) cells expressing the indicated proteins.
A major limitation of most biochemical assays is the requirement for purified protein. We asked whether DRaCALA could be applied to crude extracts to overcome this limitation. Alg44PilZ binding to cdiGMP requires a number of conserved residues, including R17, R21, D44 and S46, in the PilZ domain of the protein. E. coli BL21(DE3) expressing Alg44PilZ and variants with R21A, D44A, S46A, and R17A/R21A substitutions were lysed and tested for binding to cdiGMP using DRaCALA. […] A significant difference between the bound fractions for cdiGMP or GTP competition experiments was detected for the wild-type Alg44PilZ, but not for the PilZ domain mutants (FIGS. 4A and 4B). […]

T1 sequence (Q9HY69 16-116): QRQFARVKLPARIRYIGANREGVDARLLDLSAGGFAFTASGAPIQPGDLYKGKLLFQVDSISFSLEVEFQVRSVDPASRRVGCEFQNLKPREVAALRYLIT
Chain of E. coli NtrB (P0AFB5 whole entry): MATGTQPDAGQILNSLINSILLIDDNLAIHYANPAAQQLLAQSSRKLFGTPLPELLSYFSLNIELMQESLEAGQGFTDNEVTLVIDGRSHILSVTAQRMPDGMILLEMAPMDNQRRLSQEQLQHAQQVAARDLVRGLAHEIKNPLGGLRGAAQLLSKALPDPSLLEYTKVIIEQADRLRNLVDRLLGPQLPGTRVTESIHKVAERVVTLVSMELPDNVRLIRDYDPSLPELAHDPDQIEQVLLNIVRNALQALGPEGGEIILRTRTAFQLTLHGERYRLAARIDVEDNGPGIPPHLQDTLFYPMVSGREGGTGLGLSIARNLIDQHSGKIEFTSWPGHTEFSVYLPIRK

SMILES: Nc1nc2c(ncn2[C@@H]2O[C@@H]3CO[P@](=O)(O)O[C@H]4[C@@H](O)[C@H](n5cnc6c(=O)[nH]c(N)nc65)O[C@@H]4CO[P@](=O)(O)O[C@H]3[C@H]2O)c(=O)[nH]1 [cdiGMP, cyclic-di-GMP]
- half-life of the complex (Alg44PilZ): 5 min
- binding by protein extracts from E. coli expressing MBP alone [1]: did not bind
- binding to NtrB (sequestration of radiolabel signal) (E. coli NtrB): not
- Kd (Vc2* riboswitch RNA): 9.8 nM
- specific sequestration by whole cell extracts with soluble or insoluble protein (PelD): specifically sequester
